Assay results: patent US20230066011A1, “PYRROLOPYRIMIDINE DERIVATIVE, AND PHARMACEUTICAL COMPOSITION FOR PREVENTING OR TREATING PROTEIN KINASE-RELATED DISEASE COMPRISING SAME AS ACTIVE INGREDIENT” (VORONOI CO., LTD., priority 2019, published 2023)

Columns and labels:
human GST-DYRK1A = biological target: T1, human GST-DYRK1A (Homo sapiens, UniProt Q13627); test: GST-DYRK1A enzyme inhibition, ADP-Glo kinase assay; type: biochemical; conditions: ATP 10 μM, GST-DYRK1A full length, read-out: DYRK1 IC50
T1 construct: purified human GST-DYRK1A (full length, Thermo Scientifics) enzyme; purchased Thermo Scientifics
Method in brief: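 Full-length enzyme (10 ng) was incubated with 10 μM ATP and a specific substrate for 1 h at 25 °C in 40 mM Tris-HCl pH 7.4, 20 mM MgCl2, 0.5 mg/mL BSA, 50 μM DTT. Luminescence was read against a solvent control, and IC50 values were derived from 3 data sets.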

human GST-CLK1 = biological target: T2, human GST-CLK1 (Homo sapiens, UniProt P49759); test: GST-CLK1 enzyme inhibition, ADP-Glo kinase assay; type: biochemical; conditions: ATP 10 μM, GST-CLK1 129-end
T2 construct: purified human GST-CLK1 (129-end, SignalChem) enzyme; purchased SignalChem
Method in brief: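 ADP-Glo luminescence read-out, relative to untreated solvent control, gave IC50 (nM) from triplicate data sets. Reactions ran an hour at 25° C with 3 ng GST-CLK1 (residues 129-end), 10 μM ATP and specific substrate in Tris-HCl pH 7.4 buffer with MgCl2, BSA and DTT.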

MDA-MB-231 cell line = test: Inhibition of proliferation of MDA-MB-231 cancer cells (Cell Titer-Glo); type: cell-based; conditions: Homo sapiens, 72 hours
Method in brief: (§1)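 Luminescence from Cell Titer-Glo (10 min, room temperature) gave GI50 after 72 h compound treatment. Final compound levels spanned 0.000169–10.000000 μM over 11 points, 3-fold steps; 2,000 cells/well grown in DMEM or RPMI.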

SHP-77 = test: Inhibition of proliferation of SHP-77 cancer cells (Cell Titer-Glo); type: cell-based; conditions: Homo sapiens, SHP77, 72 hours
Method in brief: as §1

TTK = biological target: T3, TTK (Homo sapiens, UniProt P33981); test: TTK enzyme inhibition, ADP-Glo kinase assay; type: biochemical; set-up: purchased SignalChem T20-10G; conditions: ATP 5 μM
T3 sequence (P33981 1-857): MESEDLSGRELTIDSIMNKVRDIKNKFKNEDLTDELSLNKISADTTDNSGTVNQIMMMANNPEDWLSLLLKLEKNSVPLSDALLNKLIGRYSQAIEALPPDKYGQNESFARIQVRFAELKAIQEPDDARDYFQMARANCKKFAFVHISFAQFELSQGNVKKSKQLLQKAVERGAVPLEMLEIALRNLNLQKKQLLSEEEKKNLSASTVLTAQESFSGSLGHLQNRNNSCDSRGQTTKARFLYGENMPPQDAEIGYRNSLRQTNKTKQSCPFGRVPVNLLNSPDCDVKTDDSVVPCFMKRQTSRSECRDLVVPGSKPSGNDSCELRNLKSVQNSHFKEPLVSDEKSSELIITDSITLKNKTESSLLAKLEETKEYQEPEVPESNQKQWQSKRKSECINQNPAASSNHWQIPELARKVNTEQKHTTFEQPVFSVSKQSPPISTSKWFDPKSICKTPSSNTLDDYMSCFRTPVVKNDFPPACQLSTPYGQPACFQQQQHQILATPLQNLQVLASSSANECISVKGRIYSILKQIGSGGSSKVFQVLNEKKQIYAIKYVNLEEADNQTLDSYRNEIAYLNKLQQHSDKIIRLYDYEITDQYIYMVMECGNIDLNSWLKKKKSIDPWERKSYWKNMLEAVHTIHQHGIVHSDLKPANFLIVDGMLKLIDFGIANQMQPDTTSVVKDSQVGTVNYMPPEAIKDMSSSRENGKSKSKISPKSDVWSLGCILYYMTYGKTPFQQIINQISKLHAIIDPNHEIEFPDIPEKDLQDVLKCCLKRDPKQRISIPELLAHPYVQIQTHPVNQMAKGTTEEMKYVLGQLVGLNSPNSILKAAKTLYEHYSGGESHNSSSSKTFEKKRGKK
Protocol: To evaluate an inhibitory activity of the compound according to the present invention against LRRK2, LRRK2 (G2019S), DYRK1, CLK1, and TTK kinases, experiments were performed as follows.
Each of the Example compounds was reacted with a purified human TTK (SignalChem #T20-10G) enzyme to evaluate an ability to inhibit an enzyme using a method as described below. A composition of 40 mM Tris-HCl (pH 7.4), 20 mM MgCl2, 0.1 mg/mL BSA (a 5× kinase buffer, SignalChem #K03-09), and 50 μM DTT (SignalChem #D86-09B) was used as a reaction buffer, and all reactions of test substances were performed in the reaction buffer. Each of the compounds was diluted […] from a 10 mM DMSO stock using a serial dilution method, and enzyme activities were measured at final compound concentrations of 1, 0.333333, 0.111111, 0.037037, 0.012346, 0.004115, 0.001372, 0.000457, 0.000152, 0.000051, and 0.000017 μM. In the test, purified ATP (5 μM, Promega #V6930) and an MBP enzyme substrate (0.2 μg, SignalChem M42-51N) were reacted with a human TTK (7.5 ng) enzyme at 25° C. for 4 hours, and the enzyme activities were then determined using an in vitro ADP-Glo™ kinase assay (Promega #V6930). An enzyme-activity reaction solution, an ADP-Glo reaction solution, and an enzyme-ability detection solution were reacted at a ratio of 2:2:1 to measure a degree of inhibition of the enzyme activity with luminescence. The degree of inhibition of the enzyme activity according to the treatment concentration of each of the compounds was calculated based on the fluorescence of the enzyme activity of the solvent control which was not treated with the compound. In this case, the concentration of each of the compounds inhibiting 50% of the enzyme activity was determined to be an IC50 (nM) value, and calculated using Prism (Version 8.2 GraphPad) software.

MDA-MB-468 cell line = test: Inhibition of proliferation of MDA-MB-468 cancer cells (Cell Titer-Glo); type: cell-based; conditions: Homo sapiens, MDA-MB-468, 72 hours
Method in brief: as §1

IL-6 = test: Inhibition of LPS-induced IL-6 secretion of THP-1 monocytes (ELISA); type: cell-based, human; conditions: Homo sapiens, THP-1; compound 0.5 μM, LPS 500 ng/mL, 24 hours; read-out: THP1/IL6 (% inhib)
Protocol: (§2) To evaluate an inhibitory effect on cytokine secretion of monocytes, THP-1 cells (ATCC, #TIB-202) as a human-derived monocyte line were cultured in an RPMI-1640 (Hyclone, SH30027.01) medium supplemented with 10% fetal bovine serum (Hyclone, SH30084.03), 1% penicillin streptomycin (Welgene, LS202-02), and 50 μM 2-mercaptoethanol (Gibco, #21985023). In the test, the cells were seeded in a 48-well plate (SPL, #30048) at a density of 1.5 to 2×10^5 cells/250 μL per well, and cultured at 37° C. for 16 hours in a 5% CO2 incubator. Thereafter, the compound was diluted with DMSO so that the final concentration of the compound was 0.5 μM. Then, the cells were treated with the diluted compound before an hour of treatment with lipopolysaccharides (LPS) (Sigma, #L6529). After the treatment with the compound, the cells were treated with LPS so that the final concentration was 500 ng/mL. Then, a cell culture broth was collected after 24 hours of culture, and levels of cytokine IL-6 (R&D Systems, #D6050) and TNF-α (R&D Systems, #DTA00D) comprised in the culture broth were measured using respective ELISA kits. After an experiment was performed according to the manufacturer's guidelines, cell analysis was performed by measuring the optical density at 450 nm using a microplate reader.

LRRK2 = LRRK2 (Homo sapiens, UniProt Q5S007); test: LRRK2 enzyme inhibition, ADP-Glo kinase assay; type: biochemical; set-up: purchased Invitrogen PR8604B; conditions: ATP 10 μM
Method in brief: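 ADP-Glo luminescent read-out of ADP formed by purified human LRRK2 enzyme (25 ng), 10 μM ATP, 0.2 μg substrate, 25° C for 2 h, Tris-HCl pH 7.4 buffer with MgCl2, BSA, DTT. Inhibition versus untreated solvent control over twelve final concentrations (50 μM downward) gives IC50.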

LRRK2 (G2019S) = LRRK2 (G2019S) (Homo sapiens, UniProt Q5S007, G2019S); test: LRRK2 G2019S enzyme inhibition, ADP-Glo kinase assay; type: biochemical; set-up: purchased SignalChem L10-12GG; conditions: ATP 25 μM
Method in brief: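 IC50 derived from luminescent ADP-Glo readout against untreated solvent control, twelve final compound concentrations from 50 μM downward. Reaction: recombinant human LRRK2 G2019S enzyme, 25 μM ATP, substrate, pH 7.4 Tris buffer with MgCl2/BSA/DTT, 25° C. for 2 hours.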

TNF-α = test: Inhibition of LPS-induced TNF-α secretion of THP-1 monocytes (ELISA); type: cell-based, human; conditions: Homo sapiens, THP-1; compound 0.5 μM, LPS 500 ng/mL, 24 hours; read-out: THP-1/TNF-α (% inhib)
Protocol: as §2

LRRK2 (G2019S), sequence (Q5S007 970-2527 G2019S limits assumed): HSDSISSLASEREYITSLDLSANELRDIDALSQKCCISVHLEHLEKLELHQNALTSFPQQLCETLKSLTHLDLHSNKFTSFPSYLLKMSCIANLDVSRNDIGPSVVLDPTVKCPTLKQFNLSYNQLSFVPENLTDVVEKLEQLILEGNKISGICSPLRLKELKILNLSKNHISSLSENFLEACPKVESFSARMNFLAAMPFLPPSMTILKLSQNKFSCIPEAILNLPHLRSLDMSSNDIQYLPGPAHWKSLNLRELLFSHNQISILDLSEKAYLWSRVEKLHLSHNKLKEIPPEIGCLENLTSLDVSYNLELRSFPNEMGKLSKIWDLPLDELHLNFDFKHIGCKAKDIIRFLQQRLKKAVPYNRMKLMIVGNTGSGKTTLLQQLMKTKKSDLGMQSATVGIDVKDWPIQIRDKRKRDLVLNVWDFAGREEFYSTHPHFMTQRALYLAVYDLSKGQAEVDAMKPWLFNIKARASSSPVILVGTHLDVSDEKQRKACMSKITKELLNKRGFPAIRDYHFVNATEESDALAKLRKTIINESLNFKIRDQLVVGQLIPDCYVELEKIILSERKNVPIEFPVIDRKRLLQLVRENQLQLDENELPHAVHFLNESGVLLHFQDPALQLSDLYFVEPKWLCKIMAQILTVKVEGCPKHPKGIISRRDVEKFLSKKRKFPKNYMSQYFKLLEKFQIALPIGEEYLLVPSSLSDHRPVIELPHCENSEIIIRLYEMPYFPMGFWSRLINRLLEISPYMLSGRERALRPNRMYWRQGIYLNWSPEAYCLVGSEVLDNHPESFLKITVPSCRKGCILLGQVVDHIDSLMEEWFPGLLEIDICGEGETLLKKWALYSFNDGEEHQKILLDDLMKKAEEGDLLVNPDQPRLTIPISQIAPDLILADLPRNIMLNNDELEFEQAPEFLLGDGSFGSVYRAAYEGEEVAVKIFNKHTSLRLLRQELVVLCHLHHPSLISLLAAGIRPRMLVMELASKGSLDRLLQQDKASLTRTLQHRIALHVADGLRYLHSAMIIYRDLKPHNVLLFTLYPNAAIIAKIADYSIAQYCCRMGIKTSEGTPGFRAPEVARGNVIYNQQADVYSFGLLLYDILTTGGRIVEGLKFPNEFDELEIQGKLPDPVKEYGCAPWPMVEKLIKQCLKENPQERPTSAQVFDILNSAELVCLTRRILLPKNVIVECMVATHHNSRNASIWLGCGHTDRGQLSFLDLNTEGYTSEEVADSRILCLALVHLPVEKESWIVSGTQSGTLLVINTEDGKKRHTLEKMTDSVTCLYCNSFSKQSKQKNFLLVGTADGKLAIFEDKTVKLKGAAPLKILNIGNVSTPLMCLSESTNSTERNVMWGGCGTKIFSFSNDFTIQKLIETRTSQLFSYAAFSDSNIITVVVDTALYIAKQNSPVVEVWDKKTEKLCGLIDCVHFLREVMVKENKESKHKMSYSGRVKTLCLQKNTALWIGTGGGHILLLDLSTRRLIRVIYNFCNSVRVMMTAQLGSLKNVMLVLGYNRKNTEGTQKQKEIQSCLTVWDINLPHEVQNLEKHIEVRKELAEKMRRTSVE
LRRK2, sequence (Q5S007 970-2527 limits assumed): as the sequence (Q5S007 970-2527 G2019S limits assumed) above, with S1050G counted along it
T2 sequence (P49759 129-484 limits assumed): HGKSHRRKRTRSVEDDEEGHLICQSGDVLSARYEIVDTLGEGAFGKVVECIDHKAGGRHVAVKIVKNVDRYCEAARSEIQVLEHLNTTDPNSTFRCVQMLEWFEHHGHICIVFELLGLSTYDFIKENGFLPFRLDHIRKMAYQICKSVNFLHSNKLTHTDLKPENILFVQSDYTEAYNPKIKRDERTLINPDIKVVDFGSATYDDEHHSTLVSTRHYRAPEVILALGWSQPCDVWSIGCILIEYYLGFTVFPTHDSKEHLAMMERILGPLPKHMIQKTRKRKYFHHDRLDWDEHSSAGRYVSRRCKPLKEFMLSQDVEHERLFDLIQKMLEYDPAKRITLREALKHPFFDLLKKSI

SMILES | IC50 (human GST-DYRK1A) | IC50 (human GST-CLK1) | GI50 (MDA-MB-231 cell line) | GI50 (SHP-77) | IC50 (TTK) | GI50 (MDA-MB-468 cell line) | IC50 (LRRK2) | IC50 (LRRK2 (G2019S)) | inhibition at 0.5 µM (IL-6) | inhibition at 0.5 µM (TNF-α)
CC[C@@H](C)Nc1nc(Nc2ccc(S(=O)(=O)N3CCOCC3)cc2OC)nc2[nH]cc(C#N)c12 [Example 67, (R)-4-(sec-butylamino)-2-((2-methoxy-4-(morpholinosulfonyl)phenyl)amino)-7H-pyrrolo[2,3-d]pyrimidine-5-carbonitrile] | 301 to 1000 nM | 301 to 1000 nM | < 50 nM | < 50 nM | < 100 nM |  |  |  |  | 
CCN1CCP(=O)(c2ccc(Nc3nc(NC4CCCCC4)c4c(C#N)c[nH]c4n3)c(OC)c2)CC1 [Example 151, 4-(cyclohexylamino)-2-((4-(1-ethyl-4-oxido-1,4-azaphosphinan-4-yl)-2-methoxyphenyl)amino)-7H-pyrrolo[2,3-d]pyrimidine-5-carbonitrile] | 301 to 1000 nM | 101 to 300 nM | 101 to 300 nM |  | < 100 nM | 51 to 100 nM |  |  |  | 
N#Cc1c[nH]c2nc(Nc3ccc(C(=O)N4CCOCC4)c4c3OCO4)nc(NC3CCCC3)c12 [Example 152, 4-(cyclopentylamino)-2-((7-(morpholine-4-carbonyl)benzo[d][1,3]dioxol-4-yl)amino)-7H-pyrrolo[2,3-d]pyrimidine-5-carbonitrile] | 101 to 300 nM | < 100 nM | 51 to 100 nM |  | < 100 nM | 51 to 100 nM |  |  |  | 
CCNc1nc(Nc2ccc(C(=O)N3CCOCC3)c3c2OCO3)nc2[nH]cc(C(F)(F)F)c12 [Example 212, (7-((4-(ethylamino)-5-(trifluoromethyl)-7H-pyrrolo[2,3-d]pyrimidin-2-yl)amino)benzo[d][1,3]dioxol-4-yl)(morpholino)methanone] | < 100 nM | < 100 nM |  |  |  |  | < 100 nM | < 100 nM | 12.6% | 
CCNc1nc(Nc2ccc(C(=O)N3CCC(N4CCOCC4)CC3)c3c2OCO3)nc2[nH]cc(C(F)(F)F)c12 [Example 213, (7-((4-(ethylamino)-5-(trifluoromethyl)-7H-pyrrolo[2,3-d]pyrimidin-2-yl)amino)benzo[d][1,3]dioxol-4-yl)(4-morpholinopiperidin-1-yl)methanone] | < 100 nM | < 100 nM |  |  |  |  | < 100 nM | < 100 nM | 32.4% | 11.5%

More lines, main results first:

IC50 (human GST-DYRK1A) | IC50 (human GST-CLK1) | GI50 (MDA-MB-231 cell line) | GI50 (SHP-77) | IC50 (TTK) | GI50 (MDA-MB-468 cell line) | IC50 (LRRK2) | IC50 (LRRK2 (G2019S)) | SMILES | inhibition at 0.5 µM (IL-6) | inhibition at 0.5 µM (TNF-α)
< 100 nM | < 100 nM |  |  |  |  | < 100 nM | < 100 nM | CNc1nc(Nc2ccc(C(=O)N3CCC(N4C[C@@H]5C[C@H]4CO5)CC3)c3c2OCC3)nc2[nH]cc(C(F)(F)F)c12 [Example 230, (4-((1S,4S)-2-oxa-5-azabicyclo[2.2.1]heptan-5-yl)piperidin-1-yl)(7-((4-(methylamino)-5-(tifluoromethyl)-7H-pyrrolo[2,3-d]pyrimidin-2-yl)amino)-2,3-dihydrobenzofuran-4-yl)methanone] | 34% | 1%
< 100 nM | < 100 nM |  |  |  |  | < 100 nM |  | COCCNc1nc(Nc2ccc(C(=O)N3C[C@@H]4C[C@H]3CO4)c3c2OCCO3)nc2[nH]cc(C(F)(F)F)c12 [Example 410, ((LS,4S)-2-oxa-5-azabicyclo[2.2.1]heptan-5-yl)(8-((4-((2-methoxy-ethyl)amino)-5-(trifluoromethyl)-7H-pyrrolo[2,3-d]pyrimidin-2-yl)amino)-2,3-dihydrobenzo[b] [1,4]dioxin-5-yl)methanone] | 17.8% | 
< 100 nM | < 100 nM |  |  |  |  | < 100 nM |  | O=C(c1ccc(Nc2nc(NC3CCOCC3)c3c(C(F)(F)F)c[nH]c3n2)c2c1OCCO2)N1CCN(C2COC2)CC1 [Example 420, (4-(oxetan-3-yl)piperazin-1-yl)(8-((4-((tetrahydro-2H-pyran-4-yl)amino)-5-(trifluoromethyl)-7H-pyrrolo[2,3-d]pyrimidin-2-yl)amino)-2,3-dihydrobenzo[b] [1,4]dioxin-5-yl)methanone] | 20.2% | 31.6%
